Data reported in patent US20120070511A1, “MITOCHONDRIAL INHIBITORS AND USES THEREOF” (priority 2009, published 2012).

Key:
Assay type in all cases: cell-based
[1] = tested on: MM cell lines (MM1.S, 8226, KMS-11, U266); test: Measurement of cytoplasmic calcium (indo-1 fluorescence ratio 400/500 nm); settings: MM cell lines
Description: (§1) Measurement of cytoplasmic calcium: Cytoplasmic Ca^2+ concentration was estimated by using the cell permeant fluorochrome indo-1-AM (Invitrogen, Carlsbad, Calif.). When excited at 355 nm, the maximum emission of indo-1 shifts from 500 nm to 400 nm following its binding to free Ca^2+. Thus, the ratio of reading at 400 nm and 500 nm correlates with concentration of cytoplasmic Ca^2+. Experiments were performed in cells loaded with indo-1 by incubating them with 2.5 μM of this fluorochrome at 37° C. for 45 min. Cells were then centrifuged at 400 g for 5 min and resuspended in their growth medium followed by distribution of 100 μl of aliquots into 96 well optical bottom plates (Nalge Nunc, Int., Rochester, N.Y.) and fluorescence was measured by Spectra Max Gemini Plus (Molecular Devices, Sunnyvale, Calif.). The average of triplicates from untreated samples was used as control reading and increase in cytoplasmic Ca^2+ was calculated as percent increase from control samples.

[2] = tested on: non-myeloma cell lines (NALM6, MDA-MB-435, 143B, 1420); test: as above; settings: non-myeloma cell lines (oligomycin: all cell lines)
Description: as §1

[3] = tested on: CHOP/GADD153 and cleaved caspase 3 in 4 MM cell lines; test: Western blot of CHOP/GADD153 and cleaved caspase 3 (UPR-mediated apoptosis); settings: all 4 MM cell lines
Description: Western Blot analysis: Cells are plated at 10^4 cell/cm^−2 for attached cells and 3×10^5/ml for suspension cells and grown under drug treatment for the indicated times. At the end of the treatment period, cells are collected and lysed with 1% SDS in 80 mM Tris-HCL (ph 7.4) buffer supplemented with a proteinase inhibitor cocktail. DNA is fragmented by sonication and protein concentrations are measured by microBCA protein assay kit (Pierce, Rockford, Ill.). Samples are mixed with 3× Laemmli sample buffer (Cell Signaling, Danvers, Mass.) and 40 μg of protein was run on a 12% SDS-polyacrylamide gel. Gels are transferred to nitrocellulose membranes (Amersham, Piscataway, N.J.) and probed with monoclonal rabbit anti-GRP94, anti GRP-78, anti-PDI, anti-CHOP/GADD153, anti-cleaved caspase 3 (Cell Signaling, Danvers, Mass.) and monoclonal mouse anti-β-actin (Sigma, St. Louis, Mo.). Following probing, membranes are washed and incubated with HRP-conjugated secondary antibody (Invitrogen, Carlsbad, Calif.). Following addition of 1:3 diluted femto-chemiluminescent substrate (Pierce, Rockford, Ill.) membranes were exposed to blue autoradiographic film (ISC bioexpress, Kaysville, Utah). Where indicated, membranes were stripped with Stripping Buffer (Pierce, Rockford, Ill.) and reprobed with anti-β-actin (Sigma-Aldrich, St. Louis, Mo.) primary antibody. When needed, the blots were quantified using Bio-Rad gel reader which employs Quality I software (Bio-Rad, Hercules, Calif.).

[4] = tested on: MM.1S and REH cell lines; test: Mitochondrial membrane potential (JC-1) after CCCP; settings: immediately after 10 μM CCCP
Description: (§2) […]. A) ψm potential, B) mitochondrial Ca^2+ and C) cytoplasmic Ca^2+ levels were measured using the fluorochromes JC-1, X-rhod-1 and indo-1, respectively. After 10 min of initial baseline measurement, CCCP was added into each well to achieve a final concentration of 10 μM and changes in fluorescence intensity was assayed for up to 2 h. In the graphs the time point of CCCP addition is marked as ‘0’. The graph is an average of triplicate samples with +SD.
Assaying mitochondrial function: Two parameters were assayed for mitochondrial function: Δψm and oxygen consumption. Δψm was estimated using […] (JC-1, Invitrogen, Carlsbad, Calif., USA). Oxygen consumption was measured in 3×10^6 cells using a Clark's electrode (Hansatech, Cambridge, UK).

[5] = tested on: MM.1S and REH cell lines; test: Mitochondrial Ca2+ (X-rhod-1) after CCCP; settings: 10 μM CCCP; both cell types
Description: as §2
Measurement of cytoplasmic and mitochondrial calcium: Cytoplasmic Ca^2+ concentration was estimated by using the cell permeant ratiometric fluorochrome indo-1-AM (Invitrogen, Carlsbad, Calif., USA) while mitochondrial Ca^2+ was measured by X-Rhod-1-AM (Invitrogen, Carlsbad, Calif., USA). In the latter assay, to normalize mitochondrial Ca^2+ signal to mitochondria number, Mitotracker Green (Invitrogen, Carlsbad, Calif., USA) fluorescence was simultaneously analyzed. Experiments were performed in cells loaded with either 2.5 μM of indo-1 or 5 μM X-rhod-1 and 250 nM of Mitotracker at 37° C. for 45 min. Cells were, then, centrifuged at 400 g for 5 min and resuspended in their growth medium followed by distribution of 100 μl of aliquots into 96 well optical bottom plates (Nalge Nunc, Int., Rochester, N.Y., USA) and fluorescence was measured by Spectra Max Gemini Plus (Molecular Devices, Sunnyvale, Calif., USA). […]

[6] = tested on: MM.1S cells; test: Cytoplasmic Ca2+ (indo-1) after CCCP; settings: 10 μM CCCP
Description: as §2
(§3) Measurement of cytoplasmic and mitochondrial calcium: Cytoplasmic Ca^2+ concentration was estimated by using the cell permeant ratiometric fluorochrome indo-1-AM (Invitrogen, Carlsbad, Calif., USA) while mitochondrial Ca^2+ was measured by X-Rhod-1-AM (Invitrogen, Carlsbad, Calif., USA). In the latter assay, to normalize mitochondrial Ca^2+ signal to mitochondria number, Mitotracker Green (Invitrogen, Carlsbad, Calif., USA) fluorescence was simultaneously analyzed. Experiments were performed in cells loaded with either 2.5 μM of indo-1 or 5 μM X-rhod-1 and 250 nM of Mitotracker at 37° C. for 45 min. Cells were, then, centrifuged at 400 g for 5 min and resuspended in their growth medium followed by distribution of 100 μl of aliquots into 96 well optical bottom plates (Nalge Nunc, Int., Rochester, N.Y., USA) and fluorescence was measured by Spectra Max Gemini Plus (Molecular Devices, Sunnyvale, Calif., USA). The average of triplicates from untreated samples was used as control reading and increase in cytoplasmic or mitochondrial Ca^2+ was calculated as percent increase from control samples.

[7] = tested on: REH cells; test: Cytoplasmic Ca2+ (indo-1) after CCCP; settings: 10 μM CCCP
Description: as §2, §3

[8] = tested on: CHOP/GADD153 and cleaved caspase 3 in MM.1S, 8226, KMS-11; test: Western blot of CHOP/GADD153 and cleaved caspase 3 in 3 MM cell lines; settings: CCCP
Description: . Induction of UPR-mediated apoptosis following treatment of 3 MM cell lines with four different mitochondrial inhibitors for various time points was assayed by western blot analysis of CHOP and cleaved caspase 3.
Western blot analysis: Western blots were performed. Membranes were probed with monoclonal rabbit anti-GRP94, anti GRP-78, anti-PDI, anti-CHOP/GADD153, anti-cleaved caspase 3 (Cell Signaling, Danvers, Mass., USA) and monoclonal mouse anti-β-actin (Sigma, St. Louis, Mo., USA).

N#CC(C#N)=NNc1cccc(Cl)c1 [CCCP]
cytoplasmic Ca2+ after mitochondrial inhibitor [1]: immediate increase in cytoplasmic Ca^2+
effect on mitochondrial Ca2+ uptake ([1]; estimated from cytoplasmic Ca2+): equally inhibit mitochondrial Ca^2+ uptake
increase in cytoplasmic Ca2+ after mitochondrial inhibitor [2]: not seen in non-myeloma cell lines except for NALM6
treatment time at which CHOP/GADD153 expression is noted [3]: 3 h
Δψm [4]: significantly reduced in both cell types
mitochondrial Ca2+ [5]: lowering of Ca^2+ concentration in the mitochondrial matrix
cytoplasmic Ca2+ levels directly after addition [6]: go up in both cell types
cytoplasmic Ca2+ levels later (after clearance phase) [6]: remain elevated
cytoplasmic Ca2+ levels directly after addition [7]: go up in both cell types
cytoplasmic Ca2+ levels later (after clearance phase) [7]: go back to control levels
CHOP/GADD153 induction compared among the 3 MM cell lines [8]: more profound in MM.1S and 8226 as compared to KMS-11
caspase 3 cleavage compared among the 3 MM cell lines [8]: more rapidly in MM.1S and 8226 versus KMS-11
